Measured values: patent US12497406B2, “Microbiocidal derivatives” (SYNGENTA CROP PROTECTION AG, priority 2019, dated 2025)

Columns and labels:
[1] = system: Glomerella lagenarium (Colletotrichum lagenarium); assay: Glomerella lagenarium (Colletotrichum lagenarium) / liquid culture (anthracnose); format: cell-based; details: Colletotrichum orbiculare, liquid culture (PDB), growth inhibition photometrically 3-4 days after application, compared to untreated control
Description: Example B3. Glomerella lagenarium (Colletotrichum lagenarium)/Liquid Culture (Anthracnose) Conidia of the fungus from cryogenic storage are directly mixed into nutrient broth (PDB potato dextrose broth). After placing a (DMSO) solution of test compound into a microtiter plate (96-well format), the nutrient broth containing the fungal spores is added. The test plates are incubated at 24° C. and the inhibition of growth is measured photometrically 3-4 days after application. […] […]-25, and P-26.

[2] = system: Magnaporthe grisea (Pyricularia oryzae); assay: whole plant or invertebrate; format: in vivo; details: foliar, read-out: control of Magnaporthe grisea
[3] = system: Mycosphaerella graminicola (Septoria tritici); assay: Mycosphaerella graminicola (Septoria tritici) / liquid culture (Septoria blotch); format: cell-based; details: Zymoseptoria tritici, liquid culture (PDB), growth inhibition photometrically 4-5 days after application, compared to untreated control
Description: Example B11. Mycosphaerella graminicola (Septoria tritici)/Liquid Culture (Septoria Blotch) Conidia of the fungus from cryogenic storage are directly mixed into nutrient broth (PDB potato dextrose broth). After placing a (DMSO) solution of test compound into a microtiter plate (96-well format), the nutrient broth containing the fungal spores is added. The test plates are incubated at 24° C. and the inhibition of growth is determined photometrically 4-5 days after application.

[4] = system: Monographella nivalis (Microdochium nivale); assay: Monographella nivalis (Microdochium nivale) / liquid culture (foot rot cereals); format: cell-based; details: liquid culture (PDB), growth inhibition photometrically 4-5 days after application, compared to untreated control
Description: Example B6. Monographella nivalis (Microdochium nivale)/Liquid Culture (Foot Rot Cereals) Conidia of the fungus from cryogenic storage are directly mixed into nutrient broth (PDB potato dextrose broth). After placing a (DMSO) solution of test compound into a microtiter plate (96-well format), the nutrient broth containing the fungal spores is added. The test plates are incubated at 24° C. and the inhibition of growth is determined photometrically 4-5 days after application. […] […]-25, and P-26.

[5] = system: Pyrenophora teres; assay: Pyrenophora teres / barley / leaf disc preventative (net blotch); format: in vivo; details: foliar, barley leaf segments cv. Hasso, inoculated 2 days after application, compared to untreated control
Description: Example B10. Pyrenophora teres/Barley/Leaf Disc Preventative (Net Blotch) Barley leaf segments cv. Hasso are placed on agar in a multiwell plate (24-well format) and sprayed with the formulated test compound diluted in water. The leaf segments are inoculated with a spore suspension of the fungus 2 days after application. The inoculated leaf segments are incubated at 20° C. and 65% rh under a light regime of 12 h light/12 h darkness in a climate cabinet and the activity of a compound is assessed as disease control compared to untreated when an appropriate level of disease damage appears in untreated check leaf segments (5-7 days after application). […] […]-25, and P-26.

[6] = system: Puccinia recondita f. sp. tritici; assay: Puccinia recondita f. sp. tritici / wheat / leaf disc preventative (brown rust); format: in vivo; details: foliar, wheat leaf segments cv. Kanzler, inoculated 1 day after application, compared to untreated control
Description: Example B8. Puccinia recondita f. Sp. tritici/Wheat/Leaf Disc Preventative (Brown Rust) Wheat leaf segments cv. Kanzler are placed on agar in multiwell plates (24-well format) and sprayed with the formulated test compound diluted in water. The leaf disks are inoculated with a spore suspension of the fungus 1 day after application. The inoculated leaf segments are incubated at 19° C. and 75% rh under a light regime of 12 h light/12 h darkness in a climate cabinet and the activity of a compound is assessed as percent disease control compared to untreated when an appropriate level of disease damage appears in untreated check leaf segments (7-9 days after application). […] […]-25, and P-26.

[7] = system: Mycosphaerella arachidis (Cercospora arachidicola); assay: Mycosphaerella arachidis (Cercospora arachidicola) / liquid culture (early leaf spot); format: cell-based; details: liquid culture (PDB), growth inhibition photometrically 4-5 days after application, compared to untreated control
Description: Example B7. Mycosphaerella arachidis (Cercospora arachidicola)/Liquid Culture (Early Leaf Spot) Conidia of the fungus from cryogenic storage are directly mixed into nutrient broth (PDB potato dextrose broth). After placing a (DMSO) solution of test compound into a microtiter plate (96-well format), the nutrient broth containing the fungal spores is added. The test plates are incubated at 24° C. and the inhibition of growth is determined photometrically 4-5 days after application. […] […]-22, and P-25.

[8] = system: Alternaria solani; assay: Alternaria solani / tomato / leaf disc (early blight); format: in vivo; details: foliar, tomato leaf disks cv. Baby, inoculated 2 days after application, compared to untreated control
Description: Example B1. Alternaria solani/Tomato/Leaf Disc (Early Blight) Tomato leaf disks cv. Baby are placed on agar in multiwell plates (24-well format) and sprayed with the formulated test compound diluted in water. The leaf disks are inoculated with a spore suspension of the fungus 2 days after application. The inoculated leaf disks are incubated at 23° C./21° C. […] […]-24, and P-25.

CC1Oc2cc(Nc3cc(F)cc(F)c3)nc(C(=O)NCC(C)(C)C)c2O1 (centres unmarked) [Compound P-3, 6-(3,5-difluoroanilino)-N-(2,2-dimethylpropyl)-2-methyl-[1,3]dioxolo[4,5-c]pyridine-4-carboxamide]
≥ 80%: inhibition of growth at 20 ppm [1]

CC(C)(C)CC(C)(C)NC(=O)c1nc(Nc2cc(F)cc(F)c2)cc2c1OCO2 [Compound P-17, 6-(3,5-difluoroanilino)-N-(1,1,3,3-tetramethylbutyl)-[1,3]dioxolo[4,5-c]pyridine-4-carboxamide]
≥ 80%: pest or weed control at 200 ppm [2] | inhibition of growth at 20 ppm [3] | inhibition of growth at 20 ppm [4]

CC1(NC(=O)c2nc(Nc3cc(F)cc(F)c3)cc3c2OCO3)CCCCC1 [Compound P-26, 6-(3,5-difluoroanilino)-N-(1-methylcyclohexyl)-[1,3]dioxolo[4,5-c]pyridine-4-carboxamide]
≥ 80%: inhibition of growth at 20 ppm [1] | pest or weed control at 200 ppm [5] | pest or weed control at 200 ppm [2] | inhibition of growth at 20 ppm [3] | inhibition of growth at 20 ppm [4] | pest or weed control at 200 ppm [6]

CC(C)(C)CNC(=O)c1nc(Nc2cncc(F)c2)cc2c1OCO2 [Compound P-14, N-(2,2-dimethylpropyl)-6-[(5-fluoro-3-pyridyl)amino]-[1,3]dioxolo[4,5-c]pyridine-4-carboxamide]
≥ 80%: inhibition of growth at 20 ppm [1] | pest or weed control at 200 ppm [2] | inhibition of growth at 20 ppm [3] | inhibition of growth at 20 ppm [4]

CC1(C)CCC1NC(=O)c1nc(Nc2cc(F)nc(F)c2)cc2c1OCO2 (centres unmarked) [Compound P-10, 6-[(2,6-difluoro-4-pyridyl)amino]-N-(2,2-dimethylcyclobutyl)-[1,3]dioxolo[4,5-c]pyridine-4-carboxamide]
≥ 80%: inhibition of growth at 20 ppm [1] | inhibition of growth at 20 ppm [3] | inhibition of growth at 20 ppm [4]

CC(C)(NC(=O)c1nc(Nc2cc(F)cc(F)c2)cc2c1OCO2)c1ccccc1 [Compound P-20, 6-(3,5-difluoroanilino)-N-(1-methyl-1-phenyl-ethyl)-[1,3]dioxolo[4,5-c]pyridine-4-carboxamide]
≥ 80%: inhibition of growth at 20 ppm [1] | inhibition of growth at 20 ppm [3] | inhibition of growth at 20 ppm [4]

CC1(C)CCC1NC(=O)c1nc(Nc2cc(F)cc(F)c2)cc2c1OC(F)(F)O2 (centres unmarked) [Compound P-6, 6-(3,5-difluoroanilino)-N-(2,2-dimethylcyclobutyl)-2,2-difluoro-[1,3]dioxolo[4,5-c]pyridine-4-carboxamide]
≥ 80%: inhibition of growth at 20 ppm [1] | inhibition of growth at 20 ppm [4]

CC(C)CCNC(=O)c1nc(Nc2cc(F)nc(F)c2)cc2c1OCO2 [Compound P-12, 6-[(2,6-difluoro-4-pyridyl)amino]-N-isopentyl-[1,3]dioxolo[4,5-c]pyridine-4-carboxamide]
≥ 80%: inhibition of growth at 20 ppm [3] | inhibition of growth at 20 ppm [4] | pest or weed control at 200 ppm [6]

CC(C)(C)CNC(=O)c1nc(Nc2cc(F)cc(F)c2)cc2c1OCO2 [Compound P-5, 6-(3,5-difluoroanilino)-N-(2,2-dimethylpropyl)-[1,3]dioxolo[4,5-c]pyridine-4-carboxamide]
≥ 80%: inhibition of growth at 20 ppm [1] | pest or weed control at 200 ppm [5] | pest or weed control at 200 ppm [2] | inhibition of growth at 20 ppm [3] | inhibition of growth at 20 ppm [4]

CC(C)(C)CNC(=O)c1nc(Nc2cccc(F)c2)cc2c1OCO2 [Compound P-15, N-(2,2-dimethylpropyl)-6-(3-fluoroanilino)-[1,3]dioxolo[4,5-c]pyridine-4-carboxamide]
≥ 80%: inhibition of growth at 20 ppm [7] | inhibition of growth at 20 ppm [1] | pest or weed control at 200 ppm [5] | pest or weed control at 200 ppm [2] | inhibition of growth at 20 ppm [3] | inhibition of growth at 20 ppm [4]

CC1Oc2cc(Nc3ccccc3)nc(C(=O)NCC(C)(C)C)c2O1 (centres unmarked) [Compound P-1, 6-anilino-N-(2,2-dimethylpropyl)-2-methyl-[1,3]dioxolo[4,5-c]pyridine-4-carboxamide]
≥ 80%: inhibition of growth at 20 ppm [1]

CC1(NC(=O)c2nc(Nc3cc(F)cc(F)c3)cc3c2OCO3)CSC1 [Compound P-19, 6-(3,5-difluoroanilino)-N-(3-methylthietan-3-yl)-[1,3]dioxolo[4,5-c]pyridine-4-carboxamide]
≥ 80%: inhibition of growth at 20 ppm [7] | inhibition of growth at 20 ppm [1] | pest or weed control at 200 ppm [5] | pest or weed control at 200 ppm [2] | inhibition of growth at 20 ppm [3] | inhibition of growth at 20 ppm [4] | pest or weed control at 200 ppm [8]

CC1(NC(=O)c2nc(Nc3cc(F)cc(F)c3)cc3c2OCO3)CCOC1 (centres unmarked) [Compound P-23, 6-(3,5-difluoroanilino)-N-(3-methyltetrahydrofuran-3-yl)-[1,3]dioxolo[4,5-c]pyridine-4-carboxamide]
≥ 80%: inhibition of growth at 20 ppm [1] | pest or weed control at 200 ppm [5] | inhibition of growth at 20 ppm [3] | inhibition of growth at 20 ppm [4] | pest or weed control at 200 ppm [8]

CC1Oc2cc(Nc3cccc(F)c3)nc(C(=O)NCC(C)(C)C)c2O1 (centres unmarked) [Compound P-2, N-(2,2-dimethylpropyl)-6-(3-fluoroanilino)-2-methyl-[1,3]dioxolo[4,5-c]pyridine-4-carboxamide]
≥ 80%: inhibition of growth at 20 ppm [1] | inhibition of growth at 20 ppm [3]

CC1(C)CCC1NC(=O)c1nc(Nc2ccccc2)cc2c1OCO2 (centres unmarked) [Compound P-9, 6-anilino-N-(2,2-dimethylcyclobutyl)-[1,3]dioxolo[4,5-c]pyridine-4-carboxamide]
≥ 80%: inhibition of growth at 20 ppm [7] | inhibition of growth at 20 ppm [1] | pest or weed control at 200 ppm [5] | inhibition of growth at 20 ppm [3] | inhibition of growth at 20 ppm [4] | pest or weed control at 200 ppm [8]

CC1(NC(=O)c2nc(Nc3cc(F)cc(F)c3)cc3c2OCO3)COC1 [Compound P-24, 6-(3,5-difluoroanilino)-N-(3-methyloxetan-3-yl)-[1,3]dioxolo[4,5-c]pyridine-4-carboxamide]
≥ 80%: inhibition of growth at 20 ppm [1] | pest or weed control at 200 ppm [2] | inhibition of growth at 20 ppm [3] | inhibition of growth at 20 ppm [4] | pest or weed control at 200 ppm [8]

CC1(C)CCC1NC(=O)c1nc(N(C#N)c2cc(F)cc(F)c2)cc2c1OCO2 (centres unmarked) [Compound P-7, 6-(N-cyano-3,5-difluoro-anilino)-N-(2,2-dimethylcyclobutyl)-[1,3]dioxolo[4,5-c]pyridine-4-carboxamide]
≥ 80%: inhibition of growth at 20 ppm [1] | inhibition of growth at 20 ppm [3] | inhibition of growth at 20 ppm [4]
